How the values were obtained:
KOR-1 = KOR-1 (Homo sapiens, UniProt P41145); test: ^125I-opioid saturation studies in KOR-1/CHO cells; type: binding; conditions: at the highest concentrations of radioligands used
[1] = target: mu opioid receptor (MOR-1) (UniProt P42866); test: radioligand binding
Chain of mu opioid receptor (MOR-1) (P42866 whole entry): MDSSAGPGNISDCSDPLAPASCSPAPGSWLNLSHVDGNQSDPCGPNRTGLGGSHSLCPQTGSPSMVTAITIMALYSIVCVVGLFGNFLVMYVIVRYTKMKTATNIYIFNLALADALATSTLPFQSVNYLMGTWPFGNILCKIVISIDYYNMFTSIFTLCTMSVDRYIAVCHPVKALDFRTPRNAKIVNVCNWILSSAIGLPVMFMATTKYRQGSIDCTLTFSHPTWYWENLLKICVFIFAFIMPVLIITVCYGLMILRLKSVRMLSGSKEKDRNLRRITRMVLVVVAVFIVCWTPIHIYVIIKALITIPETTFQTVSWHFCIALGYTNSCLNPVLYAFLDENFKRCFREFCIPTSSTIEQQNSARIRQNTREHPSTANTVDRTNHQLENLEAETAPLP

Chain of KOR-1 (P41145 whole entry, species assumed): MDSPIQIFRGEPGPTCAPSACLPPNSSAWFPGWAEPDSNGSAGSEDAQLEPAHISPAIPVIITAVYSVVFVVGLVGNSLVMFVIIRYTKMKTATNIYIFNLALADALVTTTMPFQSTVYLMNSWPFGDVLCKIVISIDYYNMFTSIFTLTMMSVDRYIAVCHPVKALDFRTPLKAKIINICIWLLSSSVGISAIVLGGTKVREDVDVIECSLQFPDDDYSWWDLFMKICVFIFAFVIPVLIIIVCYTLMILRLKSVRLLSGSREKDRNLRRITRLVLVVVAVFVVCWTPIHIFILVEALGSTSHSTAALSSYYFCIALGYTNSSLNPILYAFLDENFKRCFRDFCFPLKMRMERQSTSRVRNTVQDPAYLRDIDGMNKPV

Row | Compound | Specific binding in KOR-1/CHO cells (KOR-1) | Ki [1]
1 | CN1CC[C@]23c4c5ccc(O)c4O[C@H]2[C@H](NC(=O)c2cccc([125I])c2)CC[C@@]3(O)[C@H]1C5 [^125IBOxyA (20)] | No specific | 
2 | [-DAla^2,MePhe^4,Gly(ol)^5]enkephalin (peptide) |  | 1.55 nM
